Results published in patent US20060069132A1, “Azolecarboxamide herbicides” (priority 2004, published 2006).

Key:
velvetleaf [1] = experiment: Test A pre-/postemergence herbicide test; format: in vivo, Abutilon theophrasti
Outline: (§1)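 Visual injury scores on a 0–100 scale (100 = complete control) taken about ten days post-treatment in greenhouse against untreated controls; dash means no result. Treatments: preemergence soil spray and postemergence spray to runoff on one- to two-leaf plants 2 to 10 cm tall, surfactant-containing formulation.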

barnyardgrass [2] = experiment: Test A pre-/postemergence herbicide test; format: in vivo, Echinochloa crus-galli
Outline: as §1

barnyardgrass [3] = experiment: Test B pre-/postemergence herbicide test; format: in vivo, Echinochloa crus-galli
Outline: (§2)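 Response was scored visually 13 to 15 days after treatment against untreated greenhouse controls, 0 meaning no effect and 100 complete control. Formulations (solvent mixture plus surfactant) went onto soil after planting, onto foliage of 1- to 4-leaf plants, and onto 2-leaf plants in a flooded paddy set including rice and barnyardgrass.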

pigweed = experiment: Test B pre-/postemergence herbicide test; format: in vivo, Amaranthus retroflexus
Outline: (§3)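 Formulation: non-phytotoxic solvent mix with surfactant. Timing: preemergence on seed and postemergence on 2–18 cm plants, applied concurrently. Readout after 13–15 d greenhouse: visual 0–100 control rating against controls.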

large crabgrass [4] = experiment: Test A pre-/postemergence herbicide test; format: in vivo, Digitaria sanguinalis
Outline: as §1

giant foxtail [5] = experiment: Test A pre-/postemergence herbicide test; format: in vivo, Setaria faberi
Outline: as §1

wheat = experiment: Test B postemergence herbicide test; format: in vivo, Triticum aestivum; parameters: key to Wheat plant response rating: 0 = no effect, 100 = complete control; details: scale 0 (no effect) to 100 (complete control)
Outline: (§4)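 Formulated test chemicals went onto postemergence plants measuring 2 to 18 cm, at one to four leaves. For the paddy assay, species had reached two leaves. Scoring took place 13–15 days later by eye, relative to untreated plants, using 0 for no effect up to 100 for full control.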

Surinam grass = experiment: Test B pre-/postemergence herbicide test; format: in vivo, Urochloa decumbens
Outline: as §3

blackgrass = experiment: Test B postemergence herbicide test; format: in vivo, Alopecurus myosuroides; details: scale 0 (no effect) to 100 (complete control)
Outline: (§5)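 Visual control ratings, 0–100 versus untreated controls, taken after 13 to 15 days in the greenhouse. Blackgrass received a postemergence spray at the 1- to 4-leaf stage (2–18 cm); ducksalad, umbrella sedge and barnyardgrass were flooded-paddy treated at 2 leaves.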

cocklebur = experiment: Test B pre-/postemergence herbicide test; format: in vivo, Xanthium strumarium
Outline: as §2

redroot pigweed = experiment: Test A pre-/postemergence herbicide test; format: in vivo, Amaranthus retroflexus
Outline: as §1

wild oat = experiment: Test B postemergence herbicide test; format: in vivo, Avena fatua; details: scale 0 (no effect) to 100 (complete control)
Outline: as §4

lambsquarters = experiment: Test B pre-/postemergence herbicide test; format: in vivo, Chenopodium album
Outline: as §3

morningglory [6] = experiment: Test B pre-/postemergence herbicide test; format: in vivo, Ipomoea coccinea
Outline: as §2

giant foxtail [7] = experiment: Test B pre-/postemergence herbicide test; format: in vivo, Setaria faberi
Outline: as §3

large crabgrass [8] = experiment: Test B pre-/postemergence herbicide test; format: in vivo, Digitaria sanguinalis
Outline: as §3

velvetleaf [9] = experiment: Test B pre-/postemergence herbicide test; format: in vivo, Abutilon theophrasti
Outline: as §3

ducksalad = experiment: Test B flooded paddy test; format: in vivo, Heteranthera limosa; details: 1000 g ai/ha, visual rating, scale 0 to 100 (0 no effect, 100 complete control), 13 to 15 days
Outline: as §5

barnyardgrass [10] = experiment: Test B flooded paddy test; format: in vivo, Echinochloa crus-galli; details: 1000 g ai/ha, visual rating, scale 0 to 100 (0 no effect, 100 complete control), 13 to 15 days
Outline: as §5

corn = experiment: Test B pre-/postemergence herbicide test; format: in vivo, Zea mays
Outline: as §3

rice [11] = experiment: Test B flooded paddy test; format: in vivo, Oryza sativa; details: 1000 g ai/ha, visual rating, scale 0 to 100 (0 no effect, 100 complete control), 13 to 15 days
Outline: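 Scale 0–100: zero equals no visible effect, 100 complete control, judged by eye relative to controls. Timing: 13 to 15 days in greenhouse post-treatment. Growth stage at spraying: two leaves (paddy) or one to four leaves, 2–18 cm (postemergence).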

[12] = tested on: small flower umbrella sedge; experiment: Test B flooded paddy test; format: in vivo, Cyperus difformis; details: 1000 g ai/ha, visual rating, scale 0 to 100 (0 no effect, 100 complete control), 13 to 15 days
Outline: as §5

rice [13] = experiment: Test B pre-/postemergence herbicide test; format: in vivo, Oryza sativa; details: preemergence
Outline: as §3

morningglory [14] = experiment: Test A pre-/postemergence herbicide test; format: in vivo, Ipomoea spp.
Outline: as §1

[15] = Postemergence, 500 g ai/ha, 0 to 100 scale, 0 no effect, 100 complete control
[16] = Postemergence, 2000 g ai/ha, 0 to 100 scale, 0 no effect, 100 complete control
[17] = Preemergence, 500 g ai/ha, visual rating, 0 to 100 scale (0 no effect, 100 complete control)
[18] = Preemergence, 2000 g ai/ha, 0 to 100 scale, 0 no effect, 100 complete control
[19] = 500 g ai/ha, visual rating 0-100, 0 no effect, 100 complete control, preemergence
[20] = Postemergence, 500 g ai/ha, visual rating after 13 to 15 days, scale 0 (no effect) to 100 (complete control)
[21] = postemergence, 125 g ai/ha, visual rating, scale 0 (no effect) to 100 (complete control)
[22] = preemergence, 125 g ai/ha, 0 to 100 scale, 0 is no effect, 100 is complete control
[23] = Postemergence, 500 g ai/ha, visual rating after 13 to 15 days
[24] = postemergence, 125 g ai/ha, visual rating

C=CCOC(=O)c1cccc(NC(=O)c2cc(C(C)(C)C)nn2CC)c1C [Compound 94]
Velvetleaf plant response rating (velvetleaf [1]; [15]): 20 | Plant response rating, Velvetleaf (velvetleaf [1]; [16]): 25 | Velvetleaf plant response rating (velvetleaf [1]; [17]): 5 | Velvetleaf plant response rating (velvetleaf [1]; Preemergence, 2000 g ai/ha, visual rating, 0 to 100 scale (0 no effect, 100 complete control)): 25 | Barnyardgrass plant response rating (barnyardgrass [2]; [15]): 20 | Plant response rating, Barnyardgrass (barnyardgrass [2]; [16]): 35 | Barnyardgrass plant response rating (barnyardgrass [2]; [17]): 20 | Barnyardgrass plant response rating (barnyardgrass [2]; [18]): 65 | Plant response rating, Barnyardgrass (barnyardgrass [3]; [19]): 20 | Plant response rating, Barnyardgrass (barnyardgrass [3]; [20]): 10 | Barnyardgrass plant response rating (barnyardgrass [3]; [21]): 10 | Plant response rating, Barnyardgrass (barnyardgrass [3]; [22]): 10 | Plant response rating, Pigweed (pigweed; [19]): 20 | Plant response rating, Pigweed (pigweed; [20]): 30 | Pigweed plant response rating (pigweed; [21]): 10 | Plant response rating, Pigweed (pigweed; [22]): 0 | Crabgrass, Large plant response rating (large crabgrass [4]; [15]): 10 | Plant response rating, Crabgrass, Large (large crabgrass [4]; [16]): 30 | Crabgrass, Large plant response rating (large crabgrass [4]; [17]): 35 | Crabgrass, Large plant response rating (large crabgrass [4]; [18]): 60 | Foxtail, Giant plant response rating (giant foxtail [5]; [15]): 10 | Plant response rating, Foxtail, Giant (giant foxtail [5]; [16]): 15 | Foxtail, Giant plant response rating (giant foxtail [5]; [17]): 45 | Foxtail, Giant plant response rating (giant foxtail [5]; [18]): 65 | Plant response rating, Wheat (wheat; [23]): 10 | Wheat plant response rating (wheat; [24]): 0 | Plant response rating, Surinam Grass (Surinam grass; [19]): 0 | Plant response rating, Surinam Grass (Surinam grass; [20]): 10 | Surinam Grass plant response rating (Surinam grass; [21]): 10 | Plant response rating, Surinam Grass (Surinam grass; [22]): 0 | Plant response rating, Blackgrass (blackgrass; [23]): 10 | Blackgrass plant response rating (blackgrass; [24]): 0 | Plant response rating, Cocklebur (cocklebur; [19]): 0 | Plant response rating, Cocklebur (cocklebur; [20]): 50 | Cocklebur plant response rating (cocklebur; [21]): 20 | Plant response rating, Cocklebur (cocklebur; [22]): 0 | Pigweed plant response rating (redroot pigweed; [15]): 25 | Plant response rating, Pigweed (redroot pigweed; [16]): 30 | Pigweed plant response rating (redroot pigweed; [17]): 35 | Pigweed plant response rating (redroot pigweed; [18]): 85 | Plant response rating, Oat, Wild (wild oat; [23]): 10 | Oat, Wild plant response rating (wild oat; [24]): 10 | Plant response rating, Lambsquarters (lambsquarters; [19]): 0 | Plant response rating, Lambsquarters (lambsquarters; [20]): 80 | Lambsquarters plant response rating (lambsquarters; [21]): 50 | Plant response rating, Lambsquarters (lambsquarters; [22]): 0 | Plant response rating, Morningglory (morningglory [6]; [19]): 0 | Plant response rating, Morningglory (morningglory [6]; [20]): 10 | Morningglory plant response rating (morningglory [6]; [21]): 10 | Plant response rating, Morningglory (morningglory [6]; [22]): 0 | Plant response rating, Foxtail, Giant (giant foxtail [7]; [19]): 30 | Plant response rating, Foxtail, Giant (giant foxtail [7]; [20]): 10 | Foxtail, Giant plant response rating (giant foxtail [7]; [21]): 10 | Plant response rating, Foxtail, Giant (giant foxtail [7]; [22]): 10 | Plant response rating, Crabgrass, Large (large crabgrass [8]; [19]): 20 | Plant response rating, Crabgrass, Large (large crabgrass [8]; [20]): 10 | Crabgrass, Large plant response rating (large crabgrass [8]; [21]): 10 | Plant response rating, Crabgrass, Large (large crabgrass [8]; [22]): 10 | Plant response rating, Velvetleaf (velvetleaf [9]; [19]): 0 | Plant response rating, Velvetleaf (velvetleaf [9]; [20]): 20 | Velvetleaf plant response rating (velvetleaf [9]; [21]): 10 | Plant response rating, Velvetleaf (velvetleaf [9]; [22]): 0 | Ducksalad plant response rating (ducksalad): 30 | Barnyardgrass plant response rating (barnyardgrass [10]): 20 | Plant response rating, Corn (corn; [19]): 0 | Plant response rating, Corn (corn; [20]): 20 | Corn plant response rating (corn; [21]): 20 | Plant response rating, Corn (corn; [22]): 0 | Rice plant response rating (rice [11]): 10 | Sedge, Umbrella plant response rating [12]: 50 | Plant response rating, Rice (rice [13]; 500 g ai/ha, visual rating 0-100, 0 no effect, 100 complete control): 0 | Plant response rating, Rice (rice [13]; 125 g ai/ha, 0 to 100 scale, 0 is no effect, 100 is complete control): 0 | Morningglory plant response rating (morningglory [14]; [15]): 20 | Plant response rating, Morningglory (morningglory [14]; [16]): 20 | Morningglory plant response rating (morningglory [14]; [17]): 10 | Morningglory plant response rating (morningglory [14]; [18]): 10
